Patent US20130345392A1, “EDN3-LIKE PEPTIDES AND USES THEREOF” (Pfizer Inc, priority 2011, published 2013)
Entries after “also recorded” stand apart in the source; their conditions may differ. Bridges are numbered along the chain shown (N, C = ends). Where no end group is shown, it is not given here.

Legend:
[1] = biological target: T1, human endothelin ETA receptor (Homo sapiens, UniProt P25101); test: Radioligand binding, human endothelin ETA receptor in transfected CHO cell membranes; details: tested at a concentration of up to 3 μM (p>0.05)
T1 construct: expressed in transfected cells; host or cells: CHO cells
T1 sequence (P25101 21-427): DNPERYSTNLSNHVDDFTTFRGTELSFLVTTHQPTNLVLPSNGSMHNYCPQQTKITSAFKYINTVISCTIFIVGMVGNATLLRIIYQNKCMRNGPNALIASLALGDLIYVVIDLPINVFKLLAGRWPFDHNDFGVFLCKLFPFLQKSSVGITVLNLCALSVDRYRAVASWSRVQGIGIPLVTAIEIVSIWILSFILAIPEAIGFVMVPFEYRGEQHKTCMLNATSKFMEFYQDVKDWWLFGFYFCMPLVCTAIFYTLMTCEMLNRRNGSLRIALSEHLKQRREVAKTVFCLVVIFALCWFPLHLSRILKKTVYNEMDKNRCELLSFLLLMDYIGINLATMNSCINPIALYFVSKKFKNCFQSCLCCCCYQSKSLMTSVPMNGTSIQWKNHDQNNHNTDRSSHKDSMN
Protocol: To evaluate the affinity of EDN3 97-140 for the agonist site of the human endothelin ETA receptor, radioligand binding with CHO cells transfected with the ETA receptor was used. […] Following incubation, the samples are filtered rapidly under vacuum through glass fiber filters (GF/B, Packard) presoaked with 0.1% BSA and rinsed several times with an ice-cold buffer containing 50 mM Tris-HCl and 150 mM NaCl using a 96-sample cell harvester (Unifilter, Packard). Filters were dried and then counted for radioactivity in a scintillation counter (Topcount, Packard) using a scintillation cocktail (Microscint 0, Packard). Results are expressed as a percent inhibition of the control radioligand specific binding.

H4IIE rat hepatoma cells = test: H4IIE glucose production in vitro; format: cell-based; details: 100 nM, 24 hours, mean of 3 independent experiments±SEM, p=0.01
Protocol: Cell culture reagents were purchased from Invitrogen (Gathersburg, Md.) unless otherwise noted. GLUTag cells were obtained from Dr. Daniel Drucker and cultured in High Glucose DMEM medium supplemented with 100 U/mL penicillin, 100 μg/mL streptomycin, and 10% fetal calf serum at 10% CO2 at 37° C. H4IIE rat hepatoma cells were purchase from American Type Culture Collection (Manassas, Va.) and cultured in low glucose DMEM supplemented with 100 U/mL penicillin, 100 μg/mL streptomycin, 2 mM L-glutamine and 10% heat-inactivated fetal calf serum at 5% CO2 and 37° C.
H4IIE cells were plated at 120,000 cells per well into 96-well Poly-D-Lysine coated plates and treated using a modification of the protocol as previously reported (de Raemy-Schenk, 2006). Briefly, 4 hours after plating, growth medium was exchanged for glucose production medium (glucose-free DMEM, 2 mM sodium pyruvate, and 20 mM sodium lactate) for 18 hours and then cells were treated with EDN3 97-140 or vehicle in fresh glucose production medium. After 24 hours, media was collected and assayed for glucose using an Amplex Red Glucose/Glucose Oxidase Assay Kit purchased from Invitrogen (Gathersburg, Md.). Data was reported as a percent of vehicle to normalize across experiments. […]

3T3L1 adipocyte = 3T3L1 adipocyte basal glucose uptake; format: cell-based; details: 10 μM (data not shown)
ob/ob mice = test: Glucose tolerance (IPGTT) in ob/ob mice; format: in vivo, mouse; details: for reduction in glucose: overnight fast, 0.6 mg/kg glucose challenge i.p., mean±SEM n=8
Protocol: (§1) DIO mice fed on a high fat diet for 14 weeks and ob/ob mice were purchased from Jackson Labs. Ob/Ob mice and DIO mice used in all studies were used at 7 and 18 weeks old, respectively. After an overnight fast, ob/ob and DIO mice were injected with vehicle (20 mM Na acetate/140 mM NaCl) or EDN3 97-140 (0.1, 1 or 10 mg/kg i.p.) followed by a […] (i.p.) or 2 g/kg (i.p.) D-glucose challenge in ob/ob and DIO mice respectively. Plasma glucose levels were determined from mouse tail vein bleeds at 0, 15, 30, 60, and 120 minutes after compound injection and measured using an automatic glucometer (Alpha-Trak). To determine the acute insulin release, plasma insulin levels were measured by using an ELISA kit with mouse insulin as a standard (Meso Scale Discovery). Results were expressed as percentages of vehicle concentrations and statistical significance determined by 2-way ANOVA repeated measures.

DIO mice = test: Glucose tolerance (IPGTT) in DIO mice; format: in vivo, mouse; details: for decrease of glucose excursion: 2 g/kg glucose challenge i.p., mean±SEM n=8
Protocol: as §1

Substance: CTCFTYKDKECVYYCHLDIIWINTPEQTVPYGLSNYRESLRGKR-NH2 (disulfide 1-15, 3-11) [EDN3 97-140]
- binding to ETA receptor [1]: failed to bind
- reduction of basal glucose production versus vehicle (H4IIE rat hepatoma cells): 19.5±7.6%
- effect on 3T3L1 adipocyte basal glucose uptake (3T3L1 adipocyte): no effect
- reduction in glucose (ob/ob mice; 1 mg/kg i.p. single bolus): 35.1±13%
- reduction in glucose (ob/ob mice; 10 mg/kg i.p. single bolus): 31.3±6.9%
- glucose excursion curve in response to an IPGTT (ob/ob mice; acute peripheral administration 0.1, 1 or 10 mg/kg i.p.): decreased
- insulin secretion during IPGTT (ob/ob mice; i.p., trend towards an increase at 30 minutes at 10 mg/kg (p>0.05), 10 mg/kg): not statistically significant; also recorded: no statistically significant effect on insulin
- decrease of glucose excursion (DIO mice; DIO mice, 0.1 mg/kg i.p.): 19±7.2%
- decrease of glucose excursion (DIO mice; DIO mice, 1 mg/kg i.p.): 20.7±8.7%
- insulin during IPGTT (DIO mice; DIO mice, i.p. (p>0.05)): no statistically significant effect on insulin
- glucose excursion curve in response to an IPGTT (DIO mice; diet induced obese mice, acute peripheral administration 0.1, 1 or 10 mg/kg i.p.): decreased
